# Laboratory results published in patent US20120189579A1 (priority 2009, published 2012).
# Assays:
# [1] = system: HCV replicon Luc Neo ET in Huh-7 cells; experiment: Replicon assay (Luc Neo ET replicon); format: cell-based; settings: Hepatitis C virus, 72 hours with compound, firefly luciferase reporter, read-out: EC50—Replicon LucneoET
# Method: (§1) Human Hepatoma Huh-7 cell line was maintained in DMEM/HAMF-12 supplemented with 10% SVF, 4 mM glutamine, […] Na pyruvate, 1% penistreptomycine. HCV replicon containing Huh-7 cell lines Huh-9.13 and Luc Neo ET (Reblikon) were maintained in DMEM supplemented with 10% SVF, 2 mM glutamine, and 1×NEAA, 100 U/ml penicillin, and 100 μg/ml streptomycine. Replicon cells were maintained in medium supplemented with 1 mg/ml G418 for replicon Huh-9.13 and 0.5 mg/ml for Luc Neo et replicon unless indicated otherwise. Huh-7 and HCV replicon cell lines were maintained at 37° C. and 5% CO2 in a humidified atmosphere. Cells were dissociated at sub confluence with trypsin EDTA 1×.
# Replicon Luc Neo ET is a bicistronic expression constructs (Lohmann et al, 1999, Science 285, 110-113). In brief, the structural genes of the HCV genome were replaced by heterologous sequences; the gene encoding the neomycin phosphotransferase (NPT) and the internal ribosome entry site (IRES) of the encephalomyocarditis virus (EMCV). The bicistronic construct is therefore composed of the following elements: HCV-IRES nucleotides 1-389, the NPT gene, the EMCV-IRES directing translation of downstream HCV sequences from NS2 or NS3 up to the authentic 3′ end of the genome. HCV Polyprotein harbours the cell culture adaptive mutations E1202G, T1280I, K1846T. G418-resistance is only possible with cells containing high amounts of replicon.
# Cells were dissociated the day before addition of compounds and seeded in 96 well-plates at a final concentration of 77 777.77 cells·ml^−1·well^−2 in 90 μl final volume of culture medium per well and were maintained at 37° C. and 5% CO2 in a humidified atmosphere for 24 hours. 10 μl of compounds to be tested were added 24 hours after seeding. Final concentration of DMSO was 1%. Cells were incubated in the presence of compounds for 72 hours after which expression of firefly luciferase reporter gene was quantified. Briefly, culture medium was removed and cells were lysed by addition of 100 μl of lysis buffer containing 125 mM Tris Phosphate ph 7.8, 10 mM EDTA, 5 mM DTT, 50% glycerol and 5% Triton. Plates were vortexed 10 min at 1300 rpm. Cell lysat was transferred in OpaqueWhite Assay 96 well Flat Bottom plates. 100 μl of luciferin solution 1× were added to each well. Luciferin solution contained 40 mM Tris Phosphate ph 7.8, 0.2 mM EDTA, 67 mM DTT, 2.14 mM MgCl2, 5.4 mM MgSO4, 4.7×10^−4 M luciferin, 5.3×10^−4 M ATP and 2.7×10^−4 M Acetyl co enzyme A. Luminescence was immediately measured with Berthold Microlumat Plus LB 96V luminometer with an integration of 0.5 sec Inhibition was calculated using the formula:
# % inhibition=1−[(RLUsample−RLUbackground)/(RLUsignal−RLUbackground)]
# [2] = biological target: T1, HCV NS5BΔ21/Gal4-DBD fusion protein (Hepatitis C virus genotype 1b, UniProt Q9WMX2); experiment: 3D-SCREEN assay (NS5B reporter gene assay in Huh-7 cells); format: cell-based, HCV genotype 1b
# T1 construct: The protein was expressed with a 21 amino acid C-terminal deletion to remove transmembrane domain; expressed in transfected cells; host or cells: Huh-7 (transient transfection)
# Method: as §1
# cDNA encoding HCV NS5B genotype 1b, was cloned in frame with Gal4-DNA Binding Domain. The protein was expressed with a 21 amino acid C-terminal deletion to remove transmembrane domain. Expression of NS5BΔ21/Gal4 DBD fusion protein was under control of SV40 early promoter. 3D-Sensor peptide was cloned in frame with VP16 activation domain. Expression of 3D-Sensor/VP16 AD fusion protein was under control of CMV promoter. Expression of the firefly luciferase reporter gene was inducible by the [Target protein/conformation sensitive peptide/VP16AD] complex.
# It is a single-target, cell based assay. Briefly, expression of a reporter gene depends on the interaction of a short peptide, thereafter named 3D-Sensor, and native conformation of the target protein. Whenever the conformation of the target protein is modified, interaction between 3D-sensor and target protein is disrupted and reporter gene is not expressed anymore. Conformation modifiers are identified by loss of expression of reporter gene. NS5B 3D-Screen platform was generated in Huh-7 cell lines by transient transfection of three expression vectors encoding respectively • (i) HCV NS5BΔ21/Gal4-DBD fusion protein • (ii) the 3D-sensor peptide 14/VP16 fusion protein • (iii) the firefly luciferase reporter gene
# Huh-7 cells were dissociated the day before transfection and seeded in T175 flasks at a density of 10^7 cells in 30 ml culture medium. Equimolar ratios of vectors were transfected in cell according to optimized jetPEI transfection protocol (PolyPlus Transfection, Illkirch, France) and 10 μg total DNA/10^6 cells. Transfection was performed for 2 hours at 37° C. and 5% CO2 in a humidified atmosphere. After two hours cells were dissociated and seeded in 96 wells plates at a density of 25,000 cells per well and 90 μl culture medium. 10 μl of compounds to be tested were added 2 hours after seeding. Final concentration of DMSO was 1%. Cells were incubated in the presence of compounds for 24 hours after which expression of firefly luciferase reporter gene was quantified. Briefly, culture medium was removed and cells were lysed by addition of 100 μl of lysis buffer containing 125 mM Tris Phosphate ph 7.8, 10 mM EDTA, 5 mM DTT, 50% glycerol and 5% Triton. Plates were vortexed 10 min at 1300 rpm. Cell lysat was transferred in OpaqueWhite Assay 96 well Flat Bottom plates. 100 μl of luciferin solution 1× were added to each well. Luciferin solution contained 40 mM Tris Phosphate ph 7.8, 0.2 mM EDTA, 67 mM DTT, 2.14 mM MgCl2, 5.4 mM MgSO4, 4.7×10^−4 M luciferin, 5.3×10^−4 M ATP and 2.7×10^−4 M Acetyl co enzyme A. Luminescence was immediately measured with Berthold Microlumat Plus LB 96V luminometer with an integration of 0.5 sec. Inhibition was calculated using the formula: % inhibition=(1−(read/average max))*100. Average max=signal in absence of compound
# [3] = biological target: T2, purified HCV NS5B with a deletion of the 21 C-terminal amino acids (Hepatitis C virus genotype 1b, UniProt Q9WMX2); experiment: HCV NS5B RdRp enzyme assay; format: biochemical; settings: read-out: inhibition (RdRp enzyme assay)
# T2 construct: purified HCV NS5B with a deletion of the 21 C-terminal amino acids
# Method: The assay was performed in a total volume of 20 μl containing 20 mM Tris pH 7.5, 1 mM DTT, 17 U RNasin, 50 mM NaCl, 10% DMSO, 5 mM MgCl2, 0.5 mM each of the 3 NTPs (ATP, CTP, GTP), 86 nM RNA template (341 nt from the 3′ end of HCV minus strand RNA), 50 nM of purified HCV NS5B with a deletion of the 21 C-terminal amino acids and 2 μCi [^3H]UTP (46 Ci·mmol^−1). The reaction mixture was incubated for 2 h at 25-30° C. and the radio labeled products were precipitated by the addition of 10% TCA. The radioactivity incorporated was quantified by counting in a Wallac scintillation counter. Increasing concentrations of tested compounds were added to the complete RdRp reaction mixture. After a two hour incubation period at 25-30° C., the amount of labeled product was determined as above. Two types of control reactions were done: a negative control corresponding to the complete mixture without enzyme and a positive control with enzyme but without compounds. In each experiment, test and control samples are in duplicate.
# The level of activity with each compound concentration was expressed with the formulae: […]
# The IC50 value was calculated as the compound concentration reducing polymerase activity by 50%.
Compound,EC50 [1] [µM],EC50 [2] [µM],inhibition at 10 µM [3] [%],melting point [°C]
COc1ccc(C(=O)C2=C(O)C(=O)N(c3nnc(C)s3)C2c2ccc(C(C)(C)C)cc2)cc1 (stereo not drawn) [Example 3],15,7,–,–
Cc1ccc(C(=O)C2=C(O)C(=O)N(c3ncc(S(=O)(=O)c4ccc([N+](=O)[O-])cc4)s3)C2c2ccc(C(C)C)cc2)cc1 (stereo not drawn) [Example 10],8,2,–,–
Cc1ccc(C(=O)C2=C(O)C(=O)N(c3ncc(S(=O)(=O)c4ccc([N+](=O)[O-])cc4)s3)C2c2ccc(C(C)(C)C)cc2)cc1 (stereo not drawn) [Example 28],4,2,85,–
CC(C)(C)c1ccc(C2C(C(=O)c3ccc(Cl)cc3)=C(O)C(=O)N2c2ncc(S(=O)(=O)c3ccc([N+](=O)[O-])cc3)s2)cc1 (stereo not drawn) [Example 40],28,5,–,–
Cc1ccc(C(=O)C2=C(O)C(=O)N(c3ncc(S(=O)(=O)c4ccc([N+](=O)[O-])cc4)s3)C2c2cccc(Cl)c2)cc1 (stereo not drawn) [Example 51],10,7,–,–
Cc1ccc(C(=O)C2=C(O)C(=O)N(c3nnc(C)s3)C2c2ccc(C(C)C)cc2)cc1 (stereo not drawn) [Example 54],11,13,–,–
"CN(C)c1ccc(C(=O)C2=C(O)C(=O)N(c3ncc(S(=O)(=O)c4ccc([N+](=O)[O-])cc4)s3)C2c2ccc(C(C)(C)C)cc2)cc1 (stereo not drawn) [Example 55, 5-(4-tert-butyl-phenyl)-4-(4-dimethylamino-benzoyl)-3-hydroxy-1-[5-(4-nitro-benzenesulfonyl)-thiazol-2-yl]-1,5-dihydro-pyrrol-2-one]",7,4,–,–
"CCc1ccc(C2C(C(=O)c3ccco3)=C(O)C(=O)N2c2ncc(S(=O)(=O)c3ccc([N+](=O)[O-])cc3)s2)cc1 (stereo not drawn) [Example 104, 5-(4-ethyl-phenyl)-4-(furan-2-carbonyl)-3-hydroxy-1-[5-(4-nitro-benzenesulfonyl)-thiazol-2-yl]-1,5-dihydro-pyrrol-2-one]",< 10,< 10,–,–
"O=C(O)c1ccc(C2C(C(=O)c3ccco3)=C(O)C(=O)N2c2ncc(S(=O)(=O)c3ccc([N+](=O)[O-])cc3)s2)cc1 (stereo not drawn) [Example 112, 4-{3-(furan-2-carbonyl)-4-hydroxy-1-[5-(4-nitro-benzenesulfonyl)-thiazol-2-yl]-5-oxo-2,5-dihydro-1H-pyrrol-2-yl}-benzoic acid]",< 10,< 10,–,–
"CC(C)c1ccc(C(=O)C2=C(O)C(=O)N(c3ncc(S(=O)(=O)c4ccc([N+](=O)[O-])cc4)s3)C2c2ccc(OC(F)(F)F)cc2)cc1 (stereo not drawn) [Example 125, 3-hydroxy-4-(4-isopropyl-benzoyl)-1-[5-(4-nitro-benzenesulfonyl)-thiazol-2-yl]-5-(4-trifluoromethoxy-phenyl)-1,5-dihydro-pyrrol-2-one]",< 10,< 10,–,276 to 278
"Cc1nnc(N2C(=O)C(O)=C(C(=O)c3ccc(C(C)C)cc3)C2c2ccc(OC(F)(F)F)cc2)s1 (stereo not drawn) [Example 127, 3-hydroxy-4-(4-isopropyl-benzoyl)-1-(5-methyl-[1,3,4]thiadiazol-2-yl)-5-(4-trifluoromethoxy-phenyl)-1,5-dihydro-pyrrol-2-one]",< 1,< 1,–,260
"Cc1nnc(N2C(=O)C(O)=C(C(=O)c3ccc(C(C)C)cc3)C2c2ccc(C(F)(F)F)cc2)s1 (stereo not drawn) [Example 128, 3-hydroxy-4-(4-isopropyl-benzoyl)-1-(5-methyl-[1,3,4]thiadiazol-2-yl)-5-(4-trifluoromethyl-phenyl)-1,5-dihydro-pyrrol-2-one]",< 1,< 1,–,257
"Cc1cnc(N2C(=O)C(O)=C(C(=O)c3ccc(C(C)C)cc3)C2c2ccc(C(F)(F)F)cc2)s1 (stereo not drawn) [Example 129, 3-hydroxy-4-(4-isopropyl-benzoyl)-1-(5-methyl-thiazol-2-yl)-5-(4-trifluoromethyl-phenyl)-1,5-dihydro-pyrrol-2-one]",< 10,< 10,–,–
"Cc1cnc(N2C(=O)C(O)=C(C(=O)c3ccc(C(C)C)cc3)C2c2ccc(OC(F)(F)F)cc2)s1 (stereo not drawn) [Example 130, 3-hydroxy-4-(4-isopropyl-benzoyl)-1-(5-methyl-thiazol-2-yl)-5-(4-trifluoromethoxy-phenyl)-1,5-dihydro-pyrrol-2-one]",< 10,< 10,–,243 to 244
